Assay results published in PMC6407917, “Identification of GSK3186899/DDD853651 as a Preclinical Development Candidate for the Treatment of Visceral Leishmaniasis” (Journal of Medicinal Chemistry, 2018).

How the values were obtained:
Assay in all cases: biochemical
Design in all cases: species or system HEK293/K-562/placenta mixed human extract; Kinobeads chemoproteomic competition binding, quantified by TMT LC-MS/MS, dose response up to 20 uM
YWHAZ = YWHAZ (Homo sapiens, UniProt P63104)
MAP3K5 = MAP3K5 (Homo sapiens, UniProt Q99683)
ERBB4 = ERBB4 (Homo sapiens, UniProt Q15303)
CAMKK2 = CAMKK2 (Homo sapiens, UniProt Q96RR4)
Sequence of CAMKK2 (Q96RR4 whole entry): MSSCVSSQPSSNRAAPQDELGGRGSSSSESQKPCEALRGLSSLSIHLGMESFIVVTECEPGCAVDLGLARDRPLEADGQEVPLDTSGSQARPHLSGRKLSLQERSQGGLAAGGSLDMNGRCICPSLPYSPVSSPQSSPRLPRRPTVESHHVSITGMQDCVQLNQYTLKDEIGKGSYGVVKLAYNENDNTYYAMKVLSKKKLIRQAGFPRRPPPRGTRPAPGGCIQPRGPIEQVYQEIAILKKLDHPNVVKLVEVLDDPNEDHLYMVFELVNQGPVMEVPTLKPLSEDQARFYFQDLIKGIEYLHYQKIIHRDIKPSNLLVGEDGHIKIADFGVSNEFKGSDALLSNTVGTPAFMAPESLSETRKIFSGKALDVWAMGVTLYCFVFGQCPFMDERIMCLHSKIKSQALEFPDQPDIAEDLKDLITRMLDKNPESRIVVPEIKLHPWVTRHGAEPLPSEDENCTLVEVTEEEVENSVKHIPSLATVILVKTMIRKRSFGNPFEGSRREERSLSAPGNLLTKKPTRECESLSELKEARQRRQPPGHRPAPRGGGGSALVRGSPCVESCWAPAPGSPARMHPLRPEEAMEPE

FGFR1 = FGFR1 (Homo sapiens, UniProt P11362)
Sequence of FGFR1 (P11362 whole entry): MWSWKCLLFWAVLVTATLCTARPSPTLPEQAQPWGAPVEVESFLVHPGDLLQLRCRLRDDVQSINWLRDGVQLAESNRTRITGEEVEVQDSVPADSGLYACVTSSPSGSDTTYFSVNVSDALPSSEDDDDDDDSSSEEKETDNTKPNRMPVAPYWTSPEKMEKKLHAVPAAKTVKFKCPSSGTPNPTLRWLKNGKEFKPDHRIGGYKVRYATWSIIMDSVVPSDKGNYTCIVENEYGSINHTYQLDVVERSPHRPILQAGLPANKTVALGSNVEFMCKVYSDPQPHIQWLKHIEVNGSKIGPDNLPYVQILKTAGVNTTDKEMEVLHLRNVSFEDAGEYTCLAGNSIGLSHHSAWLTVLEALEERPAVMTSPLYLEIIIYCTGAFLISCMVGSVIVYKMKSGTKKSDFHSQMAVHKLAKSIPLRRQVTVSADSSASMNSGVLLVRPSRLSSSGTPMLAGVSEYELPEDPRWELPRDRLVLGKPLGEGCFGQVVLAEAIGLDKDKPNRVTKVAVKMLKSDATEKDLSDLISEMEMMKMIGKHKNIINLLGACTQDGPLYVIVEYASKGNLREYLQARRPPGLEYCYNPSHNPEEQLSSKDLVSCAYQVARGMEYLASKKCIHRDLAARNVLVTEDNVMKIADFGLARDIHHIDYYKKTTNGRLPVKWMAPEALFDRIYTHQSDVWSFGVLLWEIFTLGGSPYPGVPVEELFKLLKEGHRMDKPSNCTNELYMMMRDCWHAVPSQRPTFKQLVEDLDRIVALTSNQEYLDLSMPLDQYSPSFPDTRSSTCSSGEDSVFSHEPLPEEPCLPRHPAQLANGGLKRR

SNRK = SNRK (Homo sapiens, UniProt Q9NRH2)
ACVR1 = ACVR1 (Homo sapiens, UniProt Q04771)
EIF2AK4 = EIF2AK4 (Homo sapiens, UniProt Q9P2K8)
Sequence of EIF2AK4 (Q9P2K8 whole entry): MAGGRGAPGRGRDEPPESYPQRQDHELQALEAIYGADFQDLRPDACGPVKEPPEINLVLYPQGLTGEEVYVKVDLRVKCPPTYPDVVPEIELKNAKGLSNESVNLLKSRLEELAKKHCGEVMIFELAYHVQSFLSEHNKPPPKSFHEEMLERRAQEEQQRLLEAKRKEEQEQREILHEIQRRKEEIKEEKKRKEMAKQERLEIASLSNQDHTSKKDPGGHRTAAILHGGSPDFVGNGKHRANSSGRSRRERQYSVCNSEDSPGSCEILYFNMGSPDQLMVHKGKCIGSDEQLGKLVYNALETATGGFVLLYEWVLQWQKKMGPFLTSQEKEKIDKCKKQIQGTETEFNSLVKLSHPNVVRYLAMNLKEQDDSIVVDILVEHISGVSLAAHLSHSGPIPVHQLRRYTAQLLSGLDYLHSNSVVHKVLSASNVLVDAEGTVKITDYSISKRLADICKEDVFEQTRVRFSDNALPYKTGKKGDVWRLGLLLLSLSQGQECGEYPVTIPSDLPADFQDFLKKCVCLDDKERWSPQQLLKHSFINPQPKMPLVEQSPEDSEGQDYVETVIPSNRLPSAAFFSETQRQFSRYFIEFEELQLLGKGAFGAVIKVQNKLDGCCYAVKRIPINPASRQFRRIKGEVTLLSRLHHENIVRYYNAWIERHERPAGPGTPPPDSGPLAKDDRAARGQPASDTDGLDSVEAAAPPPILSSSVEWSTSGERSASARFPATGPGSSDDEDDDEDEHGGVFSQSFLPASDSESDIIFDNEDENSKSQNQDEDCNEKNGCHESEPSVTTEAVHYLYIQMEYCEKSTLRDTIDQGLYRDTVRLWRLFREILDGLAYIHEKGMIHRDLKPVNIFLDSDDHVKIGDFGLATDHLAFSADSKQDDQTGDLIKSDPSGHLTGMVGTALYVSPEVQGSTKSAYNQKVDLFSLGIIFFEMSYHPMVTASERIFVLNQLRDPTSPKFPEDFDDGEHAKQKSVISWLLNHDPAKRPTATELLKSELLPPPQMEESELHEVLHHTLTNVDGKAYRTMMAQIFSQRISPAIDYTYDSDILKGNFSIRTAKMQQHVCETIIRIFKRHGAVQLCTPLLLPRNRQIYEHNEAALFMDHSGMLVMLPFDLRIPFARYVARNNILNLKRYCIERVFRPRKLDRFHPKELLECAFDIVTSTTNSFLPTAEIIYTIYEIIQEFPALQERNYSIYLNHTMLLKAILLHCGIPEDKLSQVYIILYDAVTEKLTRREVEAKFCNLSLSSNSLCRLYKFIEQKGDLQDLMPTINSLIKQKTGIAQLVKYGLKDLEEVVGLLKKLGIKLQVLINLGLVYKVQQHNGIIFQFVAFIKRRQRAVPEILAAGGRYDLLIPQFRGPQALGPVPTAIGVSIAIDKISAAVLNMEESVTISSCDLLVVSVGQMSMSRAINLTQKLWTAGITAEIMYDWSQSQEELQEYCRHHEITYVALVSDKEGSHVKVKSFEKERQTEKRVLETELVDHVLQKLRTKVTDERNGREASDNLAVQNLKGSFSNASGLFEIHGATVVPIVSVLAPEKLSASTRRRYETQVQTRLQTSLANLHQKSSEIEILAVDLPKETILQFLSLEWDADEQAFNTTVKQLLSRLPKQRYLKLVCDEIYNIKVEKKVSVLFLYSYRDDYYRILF

MAP4K2 = MAP4K2 (Homo sapiens, UniProt Q12851)
ERN1 = ERN1 (Homo sapiens, UniProt O75460)
CIT = CIT (Homo sapiens, UniProt O14578)
WNK1 = WNK1 (Homo sapiens, UniProt Q9H4A3)
MARK3 = MARK3 (Homo sapiens, UniProt P27448)
PDIK1L = PDIK1L (Homo sapiens, UniProt Q8N165)
Sequence of PDIK1L (Q8N165 whole entry): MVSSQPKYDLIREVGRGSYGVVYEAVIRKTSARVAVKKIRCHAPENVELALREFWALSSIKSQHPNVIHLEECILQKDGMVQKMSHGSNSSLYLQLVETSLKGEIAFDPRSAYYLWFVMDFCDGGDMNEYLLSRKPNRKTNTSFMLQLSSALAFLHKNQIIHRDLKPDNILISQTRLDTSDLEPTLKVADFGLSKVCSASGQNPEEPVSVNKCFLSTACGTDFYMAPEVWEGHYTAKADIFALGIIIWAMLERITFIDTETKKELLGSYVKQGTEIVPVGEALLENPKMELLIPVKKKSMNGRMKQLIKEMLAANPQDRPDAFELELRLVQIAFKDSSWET

CSK = CSK (Homo sapiens, UniProt P41240)
GSK3B = GSK3B (Homo sapiens, UniProt P49841)
Sequence of GSK3B (P49841 whole entry): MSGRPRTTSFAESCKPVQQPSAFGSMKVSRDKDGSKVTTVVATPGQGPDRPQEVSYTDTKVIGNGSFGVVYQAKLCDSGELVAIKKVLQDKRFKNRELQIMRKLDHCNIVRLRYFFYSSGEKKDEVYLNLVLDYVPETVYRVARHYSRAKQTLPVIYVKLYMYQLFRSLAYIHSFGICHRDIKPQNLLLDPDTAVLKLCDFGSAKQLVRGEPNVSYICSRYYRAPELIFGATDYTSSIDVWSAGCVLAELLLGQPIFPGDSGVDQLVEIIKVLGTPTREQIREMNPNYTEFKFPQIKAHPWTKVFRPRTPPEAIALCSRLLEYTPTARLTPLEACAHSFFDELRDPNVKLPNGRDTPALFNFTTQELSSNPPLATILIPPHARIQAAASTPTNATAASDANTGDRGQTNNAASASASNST

CAMK2G = CAMK2G (Homo sapiens, UniProt Q13555)
Sequence of CAMK2G (Q13555 whole entry): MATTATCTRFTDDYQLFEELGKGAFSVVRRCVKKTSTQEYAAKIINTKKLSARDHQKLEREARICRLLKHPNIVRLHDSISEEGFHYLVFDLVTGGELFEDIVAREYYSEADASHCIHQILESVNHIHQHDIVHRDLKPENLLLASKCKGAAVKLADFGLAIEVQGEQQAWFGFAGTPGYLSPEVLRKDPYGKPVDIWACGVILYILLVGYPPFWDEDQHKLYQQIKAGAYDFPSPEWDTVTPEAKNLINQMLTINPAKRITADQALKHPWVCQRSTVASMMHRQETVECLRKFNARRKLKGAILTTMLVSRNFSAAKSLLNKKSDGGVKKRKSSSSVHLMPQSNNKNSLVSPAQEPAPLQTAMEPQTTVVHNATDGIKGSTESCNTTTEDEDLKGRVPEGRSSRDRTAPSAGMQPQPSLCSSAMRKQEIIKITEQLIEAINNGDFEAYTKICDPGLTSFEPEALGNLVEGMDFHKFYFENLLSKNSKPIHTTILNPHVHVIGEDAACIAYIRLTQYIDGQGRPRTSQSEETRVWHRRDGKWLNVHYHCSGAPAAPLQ

RPS6KA3 = RPS6KA3 (Homo sapiens, UniProt P51812)
EPHB1 = EPHB1 (Homo sapiens, UniProt P54762)
DCK = DCK (Homo sapiens, UniProt P27707)
Sequence of DCK (P27707 whole entry): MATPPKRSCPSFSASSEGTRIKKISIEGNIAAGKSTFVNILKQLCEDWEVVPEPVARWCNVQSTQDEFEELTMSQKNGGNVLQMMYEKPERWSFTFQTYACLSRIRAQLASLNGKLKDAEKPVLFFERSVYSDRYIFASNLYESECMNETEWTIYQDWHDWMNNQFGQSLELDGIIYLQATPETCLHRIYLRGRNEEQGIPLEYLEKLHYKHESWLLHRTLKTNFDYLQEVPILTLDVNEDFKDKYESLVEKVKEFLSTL

NEK7 = NEK7 (Homo sapiens, UniProt Q8TDX7)
Sequence of NEK7 (Q8TDX7 whole entry): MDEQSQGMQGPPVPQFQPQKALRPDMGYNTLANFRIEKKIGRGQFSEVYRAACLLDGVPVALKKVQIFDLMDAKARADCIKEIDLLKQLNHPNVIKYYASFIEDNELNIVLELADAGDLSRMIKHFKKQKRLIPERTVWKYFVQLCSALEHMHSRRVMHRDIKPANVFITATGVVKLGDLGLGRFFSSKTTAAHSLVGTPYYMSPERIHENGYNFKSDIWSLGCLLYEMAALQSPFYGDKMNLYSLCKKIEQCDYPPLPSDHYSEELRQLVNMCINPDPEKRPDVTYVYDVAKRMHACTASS

- IC50 (YWHAZ): ≥ 20 µM
- IC50 (MAP3K5): ≥ 20 µM
- IC50 (ERBB4): ≥ 20 µM
- IC50 (CAMKK2): 8.6 µM
- IC50 (FGFR1): ≥ 20 µM
- IC50 (SNRK): ≥ 20 µM
- IC50 (ACVR1): ≥ 20 µM
- IC50 (EIF2AK4): ≥ 20 µM
- IC50 (MAP4K2): ≥ 20 µM
- IC50 (ERN1): ≥ 20 µM
- IC50 (CIT): ≥ 20 µM
- IC50 (WNK1): ≥ 20 µM
- IC50 (MARK3): ≥ 20 µM
- IC50 (PDIK1L): ≥ 20 µM
- IC50 (CSK): ≥ 20 µM
- IC50 (GSK3B): ≥ 20 µM
- IC50 (CAMK2G): ≥ 20 µM
- IC50 (RPS6KA3): ≥ 20 µM
- IC50 (EPHB1): ≥ 20 µM
- IC50 (DCK): ≥ 20 µM
- IC50 (NEK7): ≥ 20 µM
Compound: COc1ccccc1-c1n[nH]c2nc(N[C@H]3CC[C@H](NS(=O)(=O)CCC(F)(F)F)CC3)nc(OC)c12 [compound 31, 3,3,3-Trifluoro-N-(trans-4-((4-methoxy-3-(2-methoxyphenyl)-1H-pyrazolo[3,4-d]pyrimidin-6-yl)amino)cyclohexyl)propane-1-sulfonamide]
